One assay concerns the target T1, integrin α5β1 (Homo sapiens, UniProt P05556+P08648).
T1 construct: using the isolated extracellular domain of integrins αVβ3 and α5β1; purchased R&D
In words: ELISA-like competitive integrin binding assay (fibronectin-coated plates). As for the experimental part:
(§1) An ELISA-like assay using the isolated extracellular domain of integrins αVβ3 and α5β1 was performed in flat-bottom 96-well immuno plates (Brand) to determine the activities of the synthesized compounds. All wells were coated overnight with the native integrin ligand vitronectin or fibronectin (1) (Table 1) in a carbonate buffer (150 µl/well), followed by washing of each well with the PBS-T buffer (3 × 200 µl/well) (Table 1) and blocking for 1 h with the TS-B buffer (150 µl/well) at RT. […] The protein-coated assay plate was washed with the PBS-T buffer (3 × 200 µl/well), and 50 µl of the dilution series was transferred to the assay plate wells B–G. The TS-B buffer was filled into row A (100 µl/well) as the negative control and row H (50 µl/well) as the positive control. Afterward, the corresponding human integrin (2, 50 µl/well) (Table 1) in the TS-B buffer was added to row B–H and incubated for 1 h at RT. After washing the assay plate with the PBS-T buffer (3 × 200 µl/well), the primary antibody (3, 100 µl/well) (Table 1) was transferred to each well and incubated for 1 h at RT. Then the plate was washed with the PBS-T buffer (3 × 200 µl/well), treated with the secondary antibody (4, 100 µl/well) (Table 1), and incubated for 1 h at RT. The plate was washed with the PBS-T buffer (3 × 200 µl/well), and SeramunBlau® fast2 (Seramun Diagnostics GmbH, 50 µl/well) was added to each well. Staining was stopped with 3 M aq. […] The absorbance was measured with a plate reader at 450 nm and corrected by subtraction of the absorbance at 620 nm. Afterward, the resulting values were plotted and analyzed using OriginPro® 2020b where the inflection point of a DoseResp fit describes the IC50 value. All compounds were tested in duplicates or triplicates for both integrins.
(§2) The affinities (Table 4) of the RGD mimetics (Table 3) toward the integrins αVβ3 and α5β1 were determined in a competitive enzyme-linked immunosorbent assay (ELISA) using recombinant human integrins with the native ligands vitronectin and fibronectin as described in the literature ([Mas-Moruno et al., 2016b]). […]
(§3) Table S1: Proteins and buffers applied in the ELISA-like assay.
(§4) An ELISA-like assay using the isolated extracellular domain of integrins αVβ3 and α5β1 was performed in flat-bottom 96-well immuno plates (Brand) to determine the activities of the synthesised compounds.
(§5) All wells were coated overnight with the native integrin ligand vitronectin or fibronectin (Table S1, (1)) in carbonate buffer (150 µL/well), followed by washing of each well with PBS-T buffer (3×200 µL/well) (Table S1) and blocking for 1 h with TS-B buffer (150 µL/well) at RT. A dilution […]
(§6) 1:10 dilution) in TS-B buffer. The protein-coated assay plate was washed with PBS-T buffer (3×200 µL/well) and 50 µL of the dilution series was transferred to the assay plate wells B-G. TS-B buffer was filled into row A (100 µL/well) as negative control and row H (50 µL/well) as positive control. Afterwards, the corresponding human integrin (2, 50 µL/well)) (Table S1) in TS-B buffer was added to row B-H and incubated for 1 h at RT. After washing the assay plate with PBS-T buffer (3×200 µL/well) the primary antibody (3, 100 µL/well) (Table S1) was transferred to each well and incubated for 1 h at RT. Then the plate was washed with PBS-T buffer (3×200 µL/well), treated with […]

A further assay concerns the target T2, integrin αVβ3 (Homo sapiens, UniProt P05106+P06756).
T2 construct: using the isolated extracellular domain of integrins αVβ3 and α5β1; purchased Sino Biological
In words: ELISA-like competitive integrin binding assay (vitronectin-coated plates). As for the experimental part: as §1, §2, §3, §4, §5, §6

[1] abbreviates: isolated extracellular domain of human integrin α5β1, ligand fibronectin, Cilengitide as reference on all plates.
Setting [2] is: isolated extracellular domain of human integrin αVβ3, ligand vitronectin, Cilengitide as reference on all plates.

Like-named read-outs stand apart in the source and are kept apart here.

Regarding `O=C(N[C@@H](Cc1ccc(OCCCNC2=NCCN2)cc1)C(=O)O)c1ccccc1` [5aa], the IC50 on integrin α5β1 worked out at 0.0252 ± 0.00735 µM; on integrin αVβ3, 0.0385 ± 0.0243 µM.

For the molecule `O=C(NC(Cc1ccc(OCCCNc2ncccn2)cc1)C(=O)O)c1ccccc1` (stereo not shown) [5ab], the IC50 on integrin α5β1 (setting [1]) is over 10 µM; at integrin αVβ3 (setting [2]) it was 1.31 µM.

As to `O=C(N[C@@H](Cc1ccc(OCCCNC2=NCCCN2)cc1)C(=O)O)c1ccccc1` [5ac], the IC50 turned out to be 0.0174 ± 0.00334 µM at integrin α5β1 and 0.0181 ± 0.00368 µM on integrin αVβ3.

On to `O=C(N[C@@H](Cc1ccc(OCCCNC2=NCCN2)cc1)C(=O)O)c1ccc(O)cc1` [5ba], for which the IC50 was 0.0434 ± 0.0244 µM at integrin α5β1 (setting [1]) and 0.0388 ± 0.0192 µM on integrin αVβ3 (setting [2]).

As for `O=C(N[C@@H](Cc1ccc(OCCCNc2ncccn2)cc1)C(=O)O)c1ccc(O)cc1` [5bb], the IC50 on integrin α5β1 is over 10 µM; on integrin αVβ3 it was 6.53 µM.

Turning to `O=C(NC(Cc1ccc(OCCCNC2=NCCCN2)cc1)C(=O)O)c1ccc(O)cc1` (stereo not shown) [5bc], the IC50 was 0.0185 ± 0.00365 µM at integrin α5β1 (setting [1]) and 0.0704 ± 0.00057 µM on integrin αVβ3 (setting [2]).

For `O=C(N[C@@H](Cc1ccc(OCCCNC2=NCCN2)cc1)C(=O)O)c1cccc(O)c1` [5ca], the IC50 came to 0.0305 ± 0.0207 µM at integrin α5β1 and 0.00929 ± 0.00577 µM at integrin αVβ3.

On to `O=C(N[C@@H](Cc1ccc(OCCCNc2ncccn2)cc1)C(=O)O)c1cccc(O)c1` [5cb], for which the IC50 at integrin α5β1 is over 10 µM; at integrin αVβ3, 7.7 µM.

In the case of `O=C(N[C@@H](Cc1ccc(OCCCNC2=NCCCN2)cc1)C(=O)O)c1cccc(O)c1` [5cc], the IC50 is 0.0328 ± 0.0112 µM at integrin α5β1 and 0.452 ± 0.12 µM on integrin αVβ3.

For `O=C(N[C@@H](Cc1ccc(OCCCNC2=NCCN2)cc1)C(=O)O)OCc1ccccc1` [5da], the figures for the IC50 on integrin α5β1 and at integrin αVβ3 were 0.162 ± 0.036 µM and 0.00132 ± 0.00011 µM, respectively.

Turning to `O=C(N[C@@H](Cc1ccc(OCCCNc2ncccn2)cc1)C(=O)O)OCc1ccccc1` [5db], the IC50 is over 10 µM on integrin α5β1 and 0.237 ± 0.0697 µM on integrin αVβ3.

In the case of `O=C(N[C@@H](Cc1ccc(OCCCNC2=NCCCN2)cc1)C(=O)O)OCc1ccccc1` [5dc], the IC50 on integrin α5β1 turned out to be 0.0716 ± 0.0161 µM; on integrin αVβ3 it was 0.00468 ± 0.00447 µM.

As for `O=C(N[C@@H](Cc1ccc(OCCCCNC2=NCCN2)cc1)C(=O)O)c1ccccc1` [6aa], the IC50 on integrin α5β1 was determined as 0.175 ± 0.0737 µM; on integrin αVβ3, 0.0258 ± 0.00677 µM.

On to `O=C(N[C@@H](Cc1ccc(OCCCCNc2ncccn2)cc1)C(=O)O)c1ccccc1` [6ab], for which the IC50 at integrin α5β1 was over 10 µM; on integrin αVβ3, 6.17 µM.

For `O=C(NC(Cc1ccc(OCCCCNC2=NCCCN2)cc1)C(=O)O)c1ccccc1` (stereo not shown) [6ac], the results for the IC50 on integrin α5β1 (setting [1]) and at integrin αVβ3 (setting [2]) were 0.0175 ± 0.00676 µM and 0.0328 ± 0.0176 µM, respectively.

With `O=C(N[C@@H](Cc1ccc(OCCCCNC2=NCCN2)cc1)C(=O)O)c1ccc(O)cc1` [6ba], the IC50 at integrin α5β1 is 0.0352 ± 0.0184 µM; at integrin αVβ3, 1.9 ± 0.175 µM.

`O=C(NC(Cc1ccc(OCCCCNc2ncccn2)cc1)C(=O)O)c1ccc(O)cc1` (stereo not shown) [6bb]: the IC50 on integrin α5β1 (setting [1]) was over 10 µM; at integrin αVβ3 (setting [2]), 5.29 µM.

`O=C(N[C@@H](Cc1ccc(OCCCCNC2=NCCCN2)cc1)C(=O)O)c1ccc(O)cc1` [6bc]: the results for the IC50 at integrin α5β1 and on integrin αVβ3 were 0.511 ± 0.183 µM and 0.0387 ± 0.0155 µM, respectively.

As for `O=C(N[C@@H](Cc1ccc(OCCCCNC2=NCCN2)cc1)C(=O)O)c1cccc(O)c1` [6ca], the IC50 at integrin α5β1 (setting [1]) worked out at 0.0199 ± 0.0087 µM; at integrin αVβ3 (setting [2]), 0.00101 ± 0.00056 µM.

For `O=C(NC(Cc1ccc(OCCCCNc2ncccn2)cc1)C(=O)O)c1cccc(O)c1` (stereo not shown) [6cb], the IC50 at integrin α5β1 (setting [1]) was over 10 µM; at integrin αVβ3 (setting [2]), 1.85 ± 0.241 µM.

Regarding `O=C(N[C@@H](Cc1ccc(OCCCCNC2=NCCCN2)cc1)C(=O)O)c1cccc(O)c1` [6cc], the values for the IC50 on integrin α5β1 and at integrin αVβ3 were 0.107 ± 0.032 µM and 0.0904 ± 0.0313 µM, respectively.

With `O=C(N[C@@H](Cc1ccc(OCCCCNC2=NCCN2)cc1)C(=O)O)OCc1ccccc1` [6da], the values for the IC50 at integrin α5β1 and at integrin αVβ3 were 0.901 ± 0.223 µM and 0.0012 ± 0.00011 µM, respectively.

Regarding `O=C(N[C@@H](Cc1ccc(OCCCCNC2=NCCCN2)cc1)C(=O)O)OCc1ccccc1` [6dc], the IC50 at integrin α5β1 stood at 0.745 ± 0.117 µM; at integrin αVβ3 it was 0.00057 ± 3e-05 µM.

Turning to `O=C(N[C@@H](Cc1ccc(OCCCCCNC2=NCCN2)cc1)C(=O)O)c1ccccc1` [7aa], the figures for the IC50 on integrin α5β1 and at integrin αVβ3 were 1.69 µM and 0.0385 ± 0.00902 µM, respectively.

As to `O=C(NC(Cc1ccc(OCCCCCNc2ncccn2)cc1)C(=O)O)c1ccccc1` (stereo not shown) [7ab], the IC50 at integrin α5β1 (setting [1]) was over 10 µM; at integrin αVβ3 (setting [2]) it was 8.77 µM.

`O=C(N[C@@H](Cc1ccc(OCCCCCNC2=NCCCN2)cc1)C(=O)O)c1ccccc1` [7ac]: the IC50 at integrin α5β1 is 2.77 µM; at integrin αVβ3 it was 0.0588 ± 0.0144 µM.

Regarding `O=C(NC(Cc1ccc(OCCCCCNC2=NCCN2)cc1)C(=O)O)c1ccc(O)cc1` (stereo not shown) [7ba], the IC50 amounted to 1.65 µM on integrin α5β1 (setting [1]) and 0.00201 ± 0.0004 µM on integrin αVβ3 (setting [2]).

With `O=C(N[C@@H](Cc1ccc(OCCCCCNc2ncccn2)cc1)C(=O)O)c1ccc(O)cc1` [7bb], the figures for the IC50 at integrin α5β1 and at integrin αVβ3 were over 10 µM and 8.84 µM, respectively.

With `O=C(N[C@@H](Cc1ccc(OCCCCCNC2=NCCCN2)cc1)C(=O)O)c1ccc(O)cc1` [7bc], the figures for the IC50 at integrin α5β1 and on integrin αVβ3 were 0.103 ± 0.0544 µM and 0.0364 ± 0.0143 µM, respectively.

As for `O=C(N[C@@H](Cc1ccc(OCCCCCNC2=NCCN2)cc1)C(=O)O)c1cccc(O)c1` [7ca], the IC50 on integrin α5β1 stood at 6.08 µM; at integrin αVβ3, 0.0981 ± 0.0748 µM.

For the molecule `O=C(NC(Cc1ccc(OCCCCCNc2ncccn2)cc1)C(=O)O)c1cccc(O)c1` (stereo not shown) [7cb], the IC50 at integrin α5β1 (setting [1]) was over 10 µM; at integrin αVβ3 (setting [2]), 2.89 µM.

Turning to `O=C(N[C@@H](Cc1ccc(OCCCCCNC2=NCCCN2)cc1)C(=O)O)c1cccc(O)c1` [7cc], the IC50 on integrin α5β1 (setting [1]) came to 0.21 ± 0.0448 µM; on integrin αVβ3 (setting [2]), 0.0429 ± 0.00947 µM.

As to `O=C(N[C@@H](Cc1ccc(OCCCCCNC2=NCCN2)cc1)C(=O)O)OCc1ccccc1` [7da], the figures for the IC50 at integrin α5β1 and at integrin αVβ3 were 7.75 µM and 0.00376 ± 0.00198 µM, respectively.

As for `O=C(N[C@@H](Cc1ccc(OCCCCCNc2ncccn2)cc1)C(=O)O)OCc1ccccc1` [7db], the IC50 on integrin α5β1 was 8.36 µM; on integrin αVβ3 it was 2.63 µM.

As to `O=C(N[C@@H](Cc1ccc(OCCCCCNC2=NCCCN2)cc1)C(=O)O)OCc1ccccc1` [7dc], the IC50 is over 10 µM on integrin α5β1 and 0.00293 ± 0.00012 µM at integrin αVβ3.

As to `[N-]=[N+]=NCCOCCOCCOc1ccc(C(=O)N[C@@H](Cc2ccc(OCCCNC3=NCCN3)cc2)C(=O)O)cc1` [10a], the IC50 stood at 0.04 ± 0.0065 µM at integrin α5β1 and 0.278 ± 0.0692 µM on integrin αVβ3.

As for `[N-]=[N+]=NCCOCCOCCOc1ccc(C(=O)N[C@@H](Cc2ccc(OCCCCNC3=NCCN3)cc2)C(=O)O)cc1` [10b], the IC50 at integrin α5β1 was 0.404 ± 0.282 µM; on integrin αVβ3, 0.129 ± 0.00235 µM.

Take `[N-]=[N+]=NCCOCCOCCOc1ccc(C(=O)N[C@@H](Cc2ccc(OCCCCCNC3=NCCN3)cc2)C(=O)O)cc1` [10c]: the IC50 at integrin α5β1 was determined as 0.136 ± 0.0274 µM; at integrin αVβ3, 0.021 ± 0.00584 µM.

The record behind these values is paper PMC9035832, “Synthesis and Evaluation of a Non-Peptide Small-Molecule Drug Conjugate Targeting Integrin αVβ3” (Frontiers in Chemistry, 2022).
